# Measurements from patent US7977375B2, “Antibiotic and method of production thereof” (Helmholtz-Zentrum Für Infektionsforschung GmbH, priority 2004, dated 2011).
# Like-named read-outs stand apart in the source and are kept apart here.
# Legend:
# [1] = tested on: MRSA 2 (methicillin-resistant S. aureus, clinical isolate); assay: agar diffusion method, inhibition zone; type: cell-based, Staphylococcus aureus; settings: Staphylococcus aureus
# Experimental: (§1) The agar diffusion method employing Mueller-Hinton (MH) agar (Difco Laboratories) was used to determine effectiveness against bacteria and yeasts. Sterile paper disks (Schleicher & Schüell, Germany) were seeded with 10 μl crude extract or with a solution of purified macrolactin (final compound concentration on the disk 50 μg) and then placed on the surface of MH-agar plates that had been seeded beforehand with a suspension of overnight culture of the test microorganisms at a concentration of 10^5 cells/ml.
# [2] = tested on: MRSA 3 (methicillin-resistant S. aureus, clinical isolate); assay: agar diffusion method, inhibition zone; type: cell-based, Staphylococcus aureus; settings: Staphylococcus aureus
# Experimental: as §1
# [3] = tested on: S. aureus # (own collection, methicillin-sensitive control strain); assay: agar diffusion method, inhibition zone; type: cell-based, Staphylococcus aureus; settings: Staphylococcus aureus
# Experimental: as §1
# S. aureus DSMZ 1104 = assay: agar diffusion method, inhibition zone; type: cell-based, Staphylococcus aureus; settings: Staphylococcus aureus
# Experimental: as §1
# E. faecalis ATCC 29212 [4] = assay: agar diffusion method, inhibition zone; type: cell-based, Enterococcus faecalis; settings: Enterococcus faecalis
# Experimental: as §1
# E. faecalis VRAS E305 [5] = assay: agar diffusion method, inhibition zone; type: cell-based, Enterococcus faecalis; settings: Enterococcus faecalis
# Experimental: as §1
# E. faecium VRAR E315 [6] = assay: agar diffusion method, inhibition zone; type: cell-based, Enterococcus faecium; settings: Enterococcus faecium
# Experimental: as §1
# B. cepacia SCV 141 [7] = assay: agar diffusion method, inhibition zone; type: cell-based, Burkholderia cepacia; settings: Burkholderia cepacia, SCV141, MH agar, 18 hours at 37° C., per disk 10 μl crude extract, 50 μg macrolactin, 78 μg erythromycin, 10 μg ampicillin
# Experimental: as §1
# The B. cepacia strain used, which is a clinical isolate from a cystic fibrosis patient, forms small colonies (SCV 141).
# [8] = tested on: S. aureus # (non-methicillin-resistant reference strain); assay: MIC / MBC in liquid culture; type: cell-based, Staphylococcus aureus; settings: for MIC: Staphylococcus aureus, read-out: MIC (minimal inhibitory concentration)
# MRSA 2 = assay: MIC / MBC in liquid culture; type: cell-based, Staphylococcus aureus; settings: for MIC: Staphylococcus aureus, read-out: MIC (minimal inhibitory concentration)
# MRSA 3 = assay: MIC / MBC in liquid culture; type: cell-based, Staphylococcus aureus; settings: for MIC: Staphylococcus aureus, read-out: MIC (minimal inhibitory concentration)
# E. faecalis ATCC 29212 [9] = assay: MIC / MBC in liquid culture; type: cell-based, Enterococcus faecalis; settings: for MIC: Enterococcus faecalis
# E. faecalis VRAS E305 [10] = assay: MIC / MBC in liquid culture; type: cell-based, Enterococcus faecalis; settings: for MIC: Enterococcus faecalis
# E. faecium VRAR E315 [11] = assay: MIC / MBC in liquid culture; type: cell-based, Enterococcus faecium; settings: for MIC: Enterococcus faecium
# B. cepacia SCV 141 [12] = assay: MIC / MBC in liquid culture; type: cell-based, Burkholderia cepacia
# Excerpt: (§2) 7-O-malonyl macrolactin A was not effective against some of the gram-negative bacteria tested by the inventors.
# B. cepacia WT139 = assay: MIC / MBC in liquid culture; type: cell-based, Burkholderia cepacia
# Excerpt: as §2
# [13] = MRSA, 18 h, read-out: Inhibition zone
compound,measurement,setting,value
"CC[C@H]1OC(=O)[C@H](C)[C@@H](O[C@H]2C[C@@](C)(OC)[C@@H](O)[C@H](C)O2)[C@H](C)[C@@H](O[C@@H]2O[C@H](C)C[C@H](N(C)C)[C@H]2O)[C@](C)(O)C[C@@H](C)C(=O)[C@H](C)[C@@H](O)[C@]1(C)O [Erythromycin, erythromycin]",zone of inhibition at 78 µg/disc,"[1]; MRSA 2, MH agar, 18 hours at 37° C., per disk 10 μl crude extract, 50 μg macrolactin, 78 μg erythromycin, 30 μg vancomycin, 10 μg ampicillin",0 mm
same,zone of inhibition at 78 µg/disc,"[2]; MRSA 3, MH agar, 18 hours at 37° C., per disk 10 μl crude extract, 50 μg macrolactin, 78 μg erythromycin, 30 μg vancomycin, 10 μg ampicillin",0 mm
same,zone of inhibition at 78 µg/disc,"[3]; S. aureus # own collection, MH agar, 18 hours at 37° C., per disk 10 μl crude extract, 50 μg macrolactin, 78 μg erythromycin, 30 μg vancomycin, 10 μg ampicillin",40 mm
same,zone of inhibition at 78 µg/disc,"S. aureus DSMZ 1104; DSMZ1104, S. aureus DSMZ 1104, MH agar, 18 hours at 37° C., per disk 10 μl crude extract, 50 μg macrolactin, 78 μg erythromycin, 30 μg vancomycin, 10 μg ampicillin",30 mm
same,zone of inhibition at 78 µg/disc,"E. faecalis ATCC 29212 [4]; ATCC29212, E. faecalis ATCC 29212, MH agar, 18 hours at 37° C., per disk 10 μl crude extract, 50 μg macrolactin, 78 μg erythromycin, 30 μg vancomycin, 10 μg ampicillin",25 mm
same,zone of inhibition at 78 µg/disc,"E. faecalis VRAS E305 [5]; VRASE305, E. faecalis VRAS E305, MH agar, 18 hours at 37° C., per disk 10 μl crude extract, 50 μg macrolactin, 78 μg erythromycin, 30 μg vancomycin, 10 μg ampicillin",0 mm
same,zone of inhibition at 78 µg/disc,"E. faecium VRAR E315 [6]; VRARE315, E. faecium VRAR E315, MH agar, 18 hours at 37° C., per disk 10 μl crude extract, 50 μg macrolactin, 78 μg erythromycin, 30 μg vancomycin, 10 μg ampicillin",25 mm
same,zone of inhibition at 78 µg/disc,B. cepacia SCV 141 [7],0 mm
same,MIC,[8]; S. aureus #,0.06 µg/mL
same,MIC,MRSA 2; MRSA 2,> 128 µg/mL
same,MIC,MRSA 3; MRSA 3,> 128 µg/mL
same,MIC,"E. faecalis ATCC 29212 [9]; ATCC29212, E. faecalis ATCC 29212, read-out: MIC (minimal inhibitory concentration)",2 µg/mL
same,MIC,"E. faecalis VRAS E305 [10]; VRASE305, E. faecalis VRAS E305, read-out: MIC (minimal inhibitory concentration)",128 µg/mL
same,MIC,"E. faecium VRAR E315 [11]; VRARE315, E. faecium VRAR E315, read-out: MIC (minimal inhibitory concentration)",2 µg/mL
same,MIC,"B. cepacia SCV 141 [12]; Burkholderia cepacia, SCV141, read-out: MIC (minimal inhibitory concentration)",128 µg/mL
same,MIC,"B. cepacia WT139; Burkholderia cepacia, read-out: MIC (minimal inhibitory concentration)",> 128 µg/mL
"CN[C@H](CC(C)C)C(=O)N[C@H]1C(=O)N[C@@H](CC(N)=O)C(=O)N[C@H]2C(=O)N[C@H]3C(=O)N[C@H](C(=O)N[C@H](C(=O)O)c4cc(O)cc(O)c4-c4cc3ccc4O)[C@H](O)c3ccc(c(Cl)c3)Oc3cc2cc(c3O[C@@H]2O[C@H](CO)[C@@H](O)[C@H](O)[C@H]2O[C@H]2C[C@](C)(N)[C@H](O)[C@H](C)O2)Oc2ccc(cc2Cl)[C@H]1O [Vancomycin, vancomycin]",zone of inhibition at 30 µg/disc,[1]; [13],24 mm
same,zone of inhibition at 30 µg/disc,[2]; [13],24 mm
same,zone of inhibition at 30 µg/disc,"[3]; 18 h, read-out: Inhibition zone",27 mm
same,zone of inhibition at 30 µg/disc,"S. aureus DSMZ 1104; DSMZ1104, 18 h, read-out: Inhibition zone",20 mm
same,zone of inhibition at 30 µg/disc,"E. faecalis ATCC 29212 [4]; ATCC29212, 18 h, read-out: Inhibition zone",24 mm
same,zone of inhibition at 30 µg/disc,"E. faecalis VRAS E305 [5]; VRASE305, 18 h, read-out: Inhibition zone",0 mm
same,zone of inhibition at 30 µg/disc,"E. faecium VRAR E315 [6]; VRARE315, 18 h, read-out: Inhibition zone",0 mm
same,MIC,[8],0.125 µg/mL
same,MIC,MRSA 2; MRSA,2 µg/mL
same,MIC,MRSA 3; MRSA,1 µg/mL
same,MIC,"E. faecalis ATCC 29212 [9]; ATCC29212, read-out: MIC (minimal inhibitory concentration)",2 µg/mL
same,MIC,"E. faecalis VRAS E305 [10]; VRASE305, read-out: MIC (minimal inhibitory concentration)",> 128 µg/mL
same,MIC,"E. faecium VRAR E315 [11]; VRARE315, read-out: MIC (minimal inhibitory concentration)",> 128 µg/mL
Gentamycin,MIC (minimal inhibitory concentration),[8]; S. aureus #,0.25 µg/mL
same,MIC (minimal inhibitory concentration),MRSA 2; MRSA 2,128 µg/mL
same,MIC (minimal inhibitory concentration),MRSA 3; MRSA 3,128 µg/mL
same,MIC (minimal inhibitory concentration),E. faecalis ATCC 29212 [9]; E. faecalis ATCC 29212,32 µg/mL
same,MIC (minimal inhibitory concentration),E. faecalis VRAS E305 [10]; E. faecalis VRAS E305,64 µg/mL
same,MIC (minimal inhibitory concentration),E. faecium VRAR E315 [11]; E. faecium VRAR E315,64 µg/mL
same,MIC (minimal inhibitory concentration),B. cepacia SCV 141 [12],>128 µg/mL
same,MIC (minimal inhibitory concentration),B. cepacia WT139,>128 µg/mL
